≈ marks a conversion by molar mass, not a printed value. Read-outs that look alike come from different tables or passages of the source.
Tests used:
[1] = system: Mycobacterium bovis BCG (recombinant strain); test: microbe, parasite or virus in culture; format: cell-based; settings: Mycobacterium tuberculosis variant bovis BCG, BCG, 144 h; 6 days 37° C.; read-out: MIC, column A, 3(S) compounds
[2] = system: Mycobacterium tuberculosis (rMTB); test: In vivo antimycobacterial activity against M. tuberculosis (rMTB) in spleens of mice; parameters: species or system Mycobacterium tuberculosis Erdman, in female BALB/c mice; settings: 25 mg/kg daily oral gavage, CM-2, 10 days, control 422,866 (PA-824, 636, 1297) or 362,274 (others)
[3] = system: Mycobacterium tuberculosis (rMTB); test: In vivo antimycobacterial activity against M. tuberculosis (rMTB) in lungs of mice; parameters: species or system Mycobacterium tuberculosis Erdman, in female BALB/c mice; settings: 25 mg/kg daily oral gavage, CM-2, 10 days, control 117,258 (PA-824, 636, 1297) or 22,751 (others)
[4] = system: Mycobacterium bovis (rBCG-lux); test: microbe, parasite or virus in culture; format: cell-based, Mycobacterium bovis bacille Calmette Guerin; settings: Mycobacterium tuberculosis variant bovis, 72 h; read-out: % of control, measured in RLUs
[5] = system: M. tuberculosis H37 Rv in human THP-1 macrophages; test: In vitro activity against M. tuberculosis in human macrophages (luciferase bioluminescence); format: cell-based, Mycobacterium tuberculosis, in human THP-1 cells
Cryptosporidium parvum = test: Inhibition of Cryptosporidium parvum (ELISA, infected HCT-8 monolayers); format: cell-based
Protocol: Susceptibility testing against Cryptosporidium was performed according to published procedures (K. Woods, M. Nesterenko, S. Upton, "Development of a microtiter ELISA to quantify development of Cryptosporidium parvum in vitro," FEMS Microbiology Letters, 128:89-94 (1995).
Compounds were solubilized to a concentration of 100 mg/mL in 100% DMSO. DMSO solutions of test compounds were added to the test wells of a microplate at a volume that produced a final concentration of DMSO of 0.2%. Monolayers of human ileocecal adenocarcinoma cells (HCT-8) were prepared by growth in RPMI 1640 medium in 96-Well tissue culture trays for 24 h. Oocysts of C. parvum were allowed to excyst in 10% bleach for 10 min prior to use. Monolayers were then infected with 2-3×10^4 oocysts/well and incubated in the presence or absence of compound for 48 h at 35° C. in 5% CO2 and 95% humidity. Background consisted of wells containing killed oocysts (freeze thaw cycle following 30 sec exposure to liquid nitrogen). Growth control wells were infected with 2-3×10^4 oocysts/well in the absence of test compounds. At the end of incubation, wells were washed and fixed by adding 100 uL of 4% formalin in phosphate buffered saline (pH 7.3) per well for 2 h. After blocking with 1% bovine serum albumin, and 0.002% Tween 20, 50 uL of rat anti-Cryptosporidium membrane protein antiserum was added. After 30 min, wells were washed in PBS and 50 uL of secondary antibody (goat anti-rat antibody conjugated with horseradish peroxidase) was added. After 20-30 min, wells were washed again in PBS and 50 uL of 3,3',5,5'-tetramethylbenzidine solution was added. Plates were allowed to develop for 10-15 min and the optical density was read at 630 nm. Percent inhibition was calculated by comparing the optical density of the drug treated group to that of the untreated control.

Helicobacter felis = test: In vivo activity against Helicobacter felis in mice (urease test of stomach biopsy); parameters: species or system in female CD-1 mice; settings: 50 mg/kg three times daily oral gavage, CM-2, four days; vehicle and untreated 100
Protocol: Female CD-1 mice weighing 30 grams were infected by oral gavage with 10^8 -10^9 colony forming units of H. felis. This infection process was repeated two, and four days, thereafter. Colonization of the stomach was allowed to occur over a seven day period. Animals were segregated into groups of five, and were treated three times daily by oral gavage with 50 mg/kg of test drugs prepared in the CM-2 formulation vehicle (Example 52). Treatment continued for four days. One group of animals received an equal volume of formulation vehicle alone, to ensure that the vehicle had no effect on the Helicobacter infection. A separate untreated control group was also included.
All animals were then sacrificed, the stomachs were removed, opened, and the contents washed out. A five millimeter diameter biopsy was removed, and transferred to a urease test solution containing a pH-sensitive dye, which was then incubated at 37° C. incubator for 24 hours. A blue or purple coloration in this test solution signifies a positive reaction, indicating the continued presence of viable Helicobacter bacteria; a negative result is indicated by a yellow coloration. Viable Helicobacter bacteria produce a urease enzyme which converts urea, of which there is an abundant supply in the stomach (from saliva and gastric juices), into bicarbonate and ammonia, which are strong bases. This mechanism is considered to provide conditions more amenable to the survival of Helicobacter in the otherwise acidic conditions prevalent in the stomach.

Helicobacter pylori = test: In vitro inhibition of Helicobacter pylori (broth microdilution MIC); settings: Helicobacter pylori

**Q.** Which MIC [1] does the source give for O=[N+]([O-])c1cn2c(n1)OC[C@@H](OCc1ccc(OC(F)(F)F)cc1)C2 [PA-824, 3S 4-(Trifluromethoxy)benzyloxy-6-nitro-2H-3,4-dihydro-[2-1b]imidazopyran] here?
**A.** 0.06 µg/mL (≈ 0.167 µM)

**Q.** And the “Average RLUs, M. tuberculosis (rMTB) in spleens” value [2]?
**A.** 53,540 RLUs

**Q.** What about the “Average RLUs, M. tuberculosis (rMTB) in lungs” value [3] of the same compound?
**A.** 2,496 RLUs

**Q.** And the activity at 0.15 µg/mL [4]?
**A.** 29.4%

**Q.** What about the activity at 0.31 µg/mL [4] of the same compound?
**A.** 12.3%

**Q.** What about the activity at 0.62 µg/mL [4] of the same compound?
**A.** 0.6%

**Q.** And the activity at 1.25 µg/mL [4]?
**A.** 0.3%

**Q.** And the activity at 2.5 µg/mL [4]?
**A.** 0.2%

**Q.** What about the activity at 5 µg/mL [4] of the same compound?
**A.** 0.1%

**Q.** What about the RLU values ([5]; 0.06 μg/mL, day 1) of the same compound?
**A.** 25856 RLU

**Q.** And the RLU values ([5]; 0.06 μg/mL, day 2)?
**A.** 93959 RLU

**Q.** What about the RLU values ([5]; 0.06 μg/mL, day 3) of the same compound?
**A.** 109301 RLU

**Q.** What about the RLU values ([5]; 0.06 μg/mL, day 4) of the same compound?
**A.** 118318 RLU

**Q.** What about the RLU values ([5]; 0.06 μg/mL, day 7) of the same compound?
**A.** 138792 RLU

**Q.** And the RLU values ([5]; 0.13 μg/mL, day 1)?
**A.** 16904 RLU

**Q.** And the RLU values ([5]; 0.13 μg/mL, day 2)?
**A.** 40573 RLU

**Q.** And the RLU values ([5]; 0.13 μg/mL, day 3)?
**A.** 29162 RLU

**Q.** What about the RLU values ([5]; 0.13 μg/mL, day 4) of the same compound?
**A.** 27802 RLU

**Q.** What about the RLU values ([5]; 0.13 μg/mL, day 7) of the same compound?
**A.** 28699 RLU

**Q.** What about the RLU values ([5]; 0.25 μg/mL, day 1) of the same compound?
**A.** 15814 RLU

**Q.** And the RLU values ([5]; 0.25 μg/mL, day 2)?
**A.** 18064 RLU

**Q.** What about the RLU values ([5]; 0.25 μg/mL, day 3) of the same compound?
**A.** 13413 RLU

**Q.** What about the RLU values ([5]; 0.25 μg/mL, day 4) of the same compound?
**A.** 8684 RLU

**Q.** What about the RLU values ([5]; 0.25 μg/mL, day 7) of the same compound?
**A.** 6437 RLU

**Q.** What about the RLU values ([5]; 0.5 μg/mL, day 1) of the same compound?
**A.** 10021 RLU

**Q.** What about the RLU values ([5]; 0.5 μg/mL, day 2) of the same compound?
**A.** 9610 RLU

**Q.** What about the RLU values ([5]; 0.5 μg/mL, day 3) of the same compound?
**A.** 6579 RLU

**Q.** What about the RLU values ([5]; 0.5 μg/mL, day 4) of the same compound?
**A.** 5068 RLU

**Q.** And the RLU values ([5]; 0.5 μg/mL, day 7)?
**A.** 2957 RLU

**Q.** And the RLU values ([5]; 1.0 μg/mL, day 1)?
**A.** 8197 RLU

**Q.** What about the RLU values ([5]; 1.0 μg/mL, day 2) of the same compound?
**A.** 5588 RLU

**Q.** What about the RLU values ([5]; 1.0 μg/mL, day 3) of the same compound?
**A.** 3950 RLU

**Q.** What about the RLU values ([5]; 1.0 μg/mL, day 4) of the same compound?
**A.** 2686 RLU

**Q.** And the RLU values ([5]; 1.0 μg/mL, day 7)?
**A.** 1986 RLU

**Q.** And the RLU values ([5]; 2.0 μg/mL, day 1)?
**A.** 4571 RLU

**Q.** What about the RLU values ([5]; 2.0 μg/mL, day 2) of the same compound?
**A.** 3833 RLU

**Q.** What about the RLU values ([5]; 2.0 μg/mL, day 3) of the same compound?
**A.** 2567 RLU

**Q.** What about the RLU values ([5]; 2.0 μg/mL, day 4) of the same compound?
**A.** 1507 RLU

**Q.** What about the RLU values ([5]; 2.0 μg/mL, day 7) of the same compound?
**A.** 1217 RLU

**Q.** What about the minimal effective concentration ([5]; Mycobacterium tuberculosis, H37RV, human THP-1 macrophages, read-out: concentrations sufficient to prevent intracellular growth of M. tuberculosis) of the same compound?
**A.** ≥ 0.25 µg/mL

**Q.** And the dose-related response ([5]; concentrations up to 2.0 μg/ml)?
**A.** A clear dose-related response

**Q.** And the dose-related response (Cryptosporidium parvum; C. parvum growth)?
**A.** A clear dose-related response

**Q.** And the IC50 (Cryptosporidium parvum; Cryptosporidium parvum, HCT-8)?
**A.** 25 µg/mL (≈ 69.6 µM)

**Q.** And the inhibition at 5 µg/mL (Cryptosporidium parvum; Cryptosporidium parvum, HCT-8, 5 μg/mL, 48 h, read-out: Percent Inhibition of C. parvum)?
**A.** 3.1%

**Q.** What about the inhibition at 10 µg/mL (Cryptosporidium parvum; Cryptosporidium parvum, HCT-8, 10 μg/mL, 48 h, read-out: Percent Inhibition of C. parvum) of the same compound?
**A.** 17%

**Q.** What about the inhibition at 20 µg/mL (Cryptosporidium parvum; Cryptosporidium parvum, HCT-8, 20 μg/mL, 48 h, read-out: Percent Inhibition of C. parvum) of the same compound?
**A.** 40%

**Q.** What about the inhibition at 25 µg/mL (Cryptosporidium parvum; Cryptosporidium parvum, HCT-8, 25 μg/mL, 48 h, read-out: Percent Inhibition of C. parvum) of the same compound?
**A.** 52%

**Q.** And the inhibition at 50 µg/mL (Cryptosporidium parvum; Cryptosporidium parvum, HCT-8, 50 μg/mL, 48 h, read-out: Percent Inhibition of C. parvum)?
**A.** 93%

**Q.** What about the inhibition at 100 µg/mL (Cryptosporidium parvum; Cryptosporidium parvum, HCT-8, 100 μg/mL, 48 h, read-out: Percent Inhibition of C. parvum) of the same compound?
**A.** 87%

**Q.** And the “% Survival” value (Helicobacter felis)?
**A.** 40%

**Q.** And the MIC (Helicobacter pylori; 72 h, read-out: MIC against Helicobacter pylori, strain 17 (Table 5A))?
**A.** > 25 µg/mL

**Q.** And the MIC (Helicobacter pylori; 72 h, read-out: MIC against Helicobacter pylori, strain 19 (Table 5A))?
**A.** 0.4 µg/mL (≈ 1.11 µM)

**Q.** What about the MIC (Helicobacter pylori; 72 h, read-out: MIC against Helicobacter pylori, strain 20 (Table 5A)) of the same compound?
**A.** 0.2 µg/mL (≈ 0.557 µM)

**Q.** What about the MIC (Helicobacter pylori; 72 h, read-out: MIC against Helicobacter pylori, strain 40 (Table 5A)) of the same compound?
**A.** 0.4 µg/mL (≈ 1.11 µM)

**Q.** What about the MIC (Helicobacter pylori; 72 h, read-out: MIC against Helicobacter pylori, strain 43 (Table 5A)) of the same compound?
**A.** 0.8 µg/mL (≈ 2.23 µM)

**Q.** And the MIC (Helicobacter pylori; 72 h, read-out: MIC against Helicobacter pylori, strain 76 (Table 5A))?
**A.** 12.5 µg/mL (≈ 34.8 µM)

**Q.** What about the MIC (Helicobacter pylori; ATCC43504, 72 h, read-out: MIC against Helicobacter pylori, strain ATCC 43504 (Table 5A)) of the same compound?
**A.** > 25 µg/mL

— patent US6087358A (priority 1997, dated 2000)
